Measurements published in patent publication US20260166039A1 (SCHRÖDINGER, INC., priority 2022, published 2026).
pIC50: −log10 of the molar value. Like-named read-outs stand apart in the source and are kept apart here.

Assays:
Wee1 kinase domain = target: T1, Wee1 kinase domain (Homo sapiens, UniProt P30291); assay: Wee1 Kinase Biochemical Assay (ADP-Glo); conditions: 15 uM ATP
T1 construct: Wee1 kinase domain was purchased from Carna (catalog #05-177); purchased Carna 05-177
Method in brief: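 The reaction mix held 1 nM Wee1 kinase domain, 15 uM ATP and 2 ng/mL Poly(Lys,Tyr 4:1) substrate and was left for 4 hours at 25 °C. ADP production was then measured with ADP-Glo, and percent inhibition was derived relative to DMSO and a saturating Wee1 inhibitor.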

[1] = test system: phosphorylation of Cdc2 Y15 (Wee1 substrate) in A427 cells; assay: Phosphorylated Cdc2 MSD Electrochemiluminescence Assay; format: cell-based; conditions: Homo sapiens
Method in brief: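 Read-out: percent residual phospho-Cdc2 Y15 relative to DMSO and positive-control Wee1 inhibitor, measured by MSD electrochemiluminescence capture/detection antibody assay in cell lysates. A427 cells received duplicate 3-fold compound dilution series 20 h post-seeding, with 6 h total incubation at 37 °C.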

[2] = class symbols, 1 nM Wee1 enzyme, 4 hours at 25° C.
[3] = A-427, class symbols, read-out: A427 pCDC2 MSD IC50

T1 sequence (P30291 299-569 limits assumed): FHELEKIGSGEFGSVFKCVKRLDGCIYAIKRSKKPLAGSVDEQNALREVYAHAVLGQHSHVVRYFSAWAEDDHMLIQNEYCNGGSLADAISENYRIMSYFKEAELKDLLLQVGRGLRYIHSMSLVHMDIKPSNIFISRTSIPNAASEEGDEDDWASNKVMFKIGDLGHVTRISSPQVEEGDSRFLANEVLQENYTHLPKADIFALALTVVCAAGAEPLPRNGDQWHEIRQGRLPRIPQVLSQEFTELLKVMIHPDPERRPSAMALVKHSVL

Row | SMILES | pIC50 (Wee1 kinase domain; Wee1 kinase domain, ADP-Glo) | pIC50 ([1]; A-427, pCDC2 MSD) | pIC50 (Wee1 kinase domain; [2]) | pIC50 [1, 3]
1 | C[C@H]1COC(=O)N1c1cccc(N2c3nc(Nc4ccc(C5CCN(C)CC5)cc4)ncc3[C@@]3(C)COC(C)(C)C[C@@H]23)n1 (single isomer, unassigned) [Example 251] | > 8.00 | 6.00 to 7.00 | – | –
2 | CN1CC[C@H]2CN(c3ccc(Nc4ncc5c(n4)N(c4cccc(C(C)(C)O)n4)[C@@H]4CC(C)(C)OC[C@]54C)cc3)C[C@H]21 (single isomer, unassigned) [Example 439] | – | – | > 8.00 | 6.00 to 7.00
3 | CNCc1cccc(N2c3nc(Nc4ccn([C@@H]5CCOC5)c(=O)c4)ncc3[C@@]3(C)COC(C)(C)C[C@@H]23)n1 (single isomer, unassigned) [Example 388] | > 8.00 | 6.00 to 7.00 | – | –
4 | Cc1cc(Nc2ncc3c(n2)N(c2cccc(N4C(=O)OC[C@@H]4C)n2)[C@@H]2CC(C)(C)OC[C@]32C)ccc1O[C@H]1CCNC1 (single isomer, unassigned) [Example 339] | > 8.00 | 6.00 to 7.00 | – | –
5 | CC1(C)CC2N(c3cccc(N=S(C)(C)=O)n3)c3nc(Nc4ccc(N5CCOCC5)cc4)ncc3C2(C)CO1 (single isomer, unassigned) [Example 496] | – | – | > 8.00 | 6.00 to 7.00
6 | CNCc1cccc(N2c3nc(Nc4ccc(N5C6CCC5COC6)cc4)ncc3[C@@]3(C)COC(C)(C)C[C@@H]23)n1 (single isomer, unassigned) [Example 87] | > 8.00 | 6.00 to 7.00 | – | –
7 | CNCc1cccc(N2c3nc(Nc4ccc(N5CCC(F)(F)C5)cc4)ncc3[C@@]3(C)COC(C)(C)C[C@@H]23)n1 (single isomer, unassigned) [Example 22] | > 8.00 | 6.00 to 7.00 | – | –
8 | COc1ccc(Nc2ncc3c(n2)N(c2cccc(N=S(C)(C)=O)n2)[C@@H]2CC(C)(C)OC[C@]32C)nn1 (single isomer, unassigned) [Example 372] | > 8.00 | 6.00 to 7.00 | – | –
9 | CNCc1cccc(N2c3nc(Nc4ccc(C5(C)COC5)cc4)ncc3[C@]3(C)COC(C)(C)C[C@H]23)n1 (single isomer, unassigned) [Example 82] | > 8.00 | 6.00 to 7.00 | – | –
10 | CN1CC[C@H](c2ccc(Nc3ncc4c(n3)N(c3cccc(N=S(C)(C)=O)n3)[C@@H]3CC(C)(C)OC[C@]43C)cc2)C1 (single isomer, unassigned) [Example 133] | > 8.00 | 6.00 to 7.00 | – | –
11 | Cc1cc(Nc2ncc3c(n2)N(c2cccc(N4C(=O)OC[C@@H]4C)n2)[C@@H]2CC(C)(C)OC[C@]32C)ccc1N1C[C@H]2C[C@@H]1CN2C (single isomer, unassigned) [Example 289] | > 8.00 | 6.00 to 7.00 | – | –
12 | Cc1cncc(Nc2ncc3c(n2)N(c2cccc(N=S(C)(C)=O)n2)[C@@H]2CC(C)(C)OC[C@]32C)c1 (single isomer, unassigned) [Example 492] | – | – | > 8.00 | > 7.00
13 | Cc1ccc(Nc2ncc3c(n2)N(c2cccc(N=S(C)(C)=O)n2)[C@@H]2CC(C)(C)OC[C@]32C)cn1 (single isomer, unassigned) [Example 491] | – | – | > 8.00 | 6.00 to 7.00
14 | Cc1cnc(Nc2ncc3c(n2)N(c2cccc(N=S(C)(C)=O)n2)[C@@H]2CC(C)(C)OC[C@]32C)cn1 (single isomer, unassigned) [Example 371] | > 8.00 | 6.00 to 7.00 | – | –
15 | Cn1ncc(Nc2ncc3c(n2)N(c2cccc(N=S(C)(C)=O)n2)[C@@H]2CC(C)(C)OC[C@]32C)c1F (single isomer, unassigned) [Example 490] | – | – | > 8.00 | 6.00 to 7.00
16 | C[C@H]1COC(=O)N1c1cccc(N2c3nc(Nc4ccc(N5C[C@H]6C[C@@H]5CN6C)cc4)ncc3[C@]3(C)COC(C)(C)C[C@H]23)n1 (single isomer, unassigned) [Example 246] | 7.00 to 8.00 | 5.00 to 6.00 | – | –
17 | C[C@H]1COC(=O)N1c1cccc(N2c3nc(Nc4ccc(N5C[C@@H]6C[C@H]5CN6C)c(F)c4)ncc3[C@@]3(C)COC(C)(C)C[C@@H]23)n1 (single isomer, unassigned) [Example 293] | > 8.00 | 6.00 to 7.00 | – | –
18 | Cc1cc(Nc2ncc3c(n2)N(c2cccc(C(C)(C)O)n2)[C@@H]2CC(C)(C)OC[C@]32C)ccc1N1C[C@H]2C[C@@H]1CN2C (single isomer, unassigned) [Example 425] | – | – | > 8.00 | 6.00 to 7.00

Other lines, results leading:

Row | pIC50 (Wee1 kinase domain; Wee1 kinase domain, ADP-Glo) | pIC50 ([1]; A-427, pCDC2 MSD) | pIC50 (Wee1 kinase domain; [2]) | pIC50 [1, 3] | SMILES
19 | – | – | > 8.00 | > 7.00 | CC1(C)C[C@H]2N(c3cccc(N4CCCC4=O)n3)c3nc(Nc4ccc(O[C@H]5CCNC5)cc4)ncc3[C@@]2(C)CO1 [Example 620, 1-(6-((4bR,8aR)-4b,7,7-trimethyl-2-((4-(((S)-pyrrolidin-3-yl)oxy)phenyl)amino)-4b,7,8,8a-tetrahydropyrano[3′,4′:4,5]pyrrolo[2,3-d]pyrimidin-9(5H)-yl)pyridin-2-yl)pyrrolidin-2-one]
20 | – | – | > 8.00 | 5.00 to 6.00 | CN1CCC(c2ccc(Nc3ncc4c(n3)N(c3cccc(N=S(C)(C)=O)c3)[C@@H]3CC(C)(C)OC[C@]43C)cn2)CC1 [Example 710, dimethyl((3-((4bR,8aR)-4b,7,7-trimethyl-2-((6-(1-methylpiperidin-4-yl)pyridin-3-yl)amino)-4b,7,8,8a-tetrahydropyrano[3′,4′:4,5]pyrrolo[2,3-d]pyrimidin-9(5H)-yl)phenyl)imino)-16-sulfanone]
21 | – | – | > 8.00 | 6.00 to 7.00 | CNC1(c2cccc(N3c4nc(Nc5ccc(N6CCOCC6)cc5)ncc4[C@@]4(C)COC(C)(C)C[C@@H]34)n2)CC1 (single isomer, unassigned) [Example 543]
22 | – | – | > 8.00 | 6.00 to 7.00 | Cc1cc(Nc2ncc3c(n2)N(c2cccc(C(=O)N(C)C)n2)[C@@H]2CC(C)(C)OC[C@]32C)ccc1C1CCN(C)CC1 (single isomer, unassigned) [Example 585]
23 | – | – | > 8.00 | 5.00 to 6.00 | CC1(C)C[C@H]2N(c3cccc(N=S(C)(C)=O)n3)c3nc(Nc4ccnnc4)ncc3[C@@]2(C)CO1 (single isomer, unassigned) [Example 799]
24 | – | – | > 8.00 | 6.00 to 7.00 | CC1(C)C[C@H]2N(c3cccc([C@H]4COCCN4)n3)c3nc(Nc4ccc(N5CCOCC5)cc4)ncc3[C@@]2(C)CO1 [Example 731, (4bR,8aR)-4b,7,7-trimethyl-9-(6-((S)-morpholin-3-yl)pyridin-2-yl)-N-(4-morpholinophenyl)-4b,5,7,8,8a,9-hexahydropyrano[3′,4′:4,5]pyrrolo[2,3-d]pyrimidin-2-amine]
25 | – | – | > 8.00 | 6.00 to 7.00 | CN1C[C@@H]2C[C@H]1CN2c1ccc(Nc2ncc3c(n2)N(c2cccc(N4CCOC4=O)n2)[C@@H]2CC(C)(C)OC[C@]32C)cc1F [Example 676, 3-(6-((4bR,8aR)-2-((3-fluoro-4-((1S,4S)-5-methyl-2,5-diazabicyclo[2.2.1]heptan-2-yl)phenyl)amino)-4b,7,7-trimethyl-4b,7,8,8a-tetrahydropyrano[3′,4′:4,5]pyrrolo[2,3-d]pyrimidin-9(5H)-yl)pyridin-2-yl)oxazolidin-2-one]
26 | – | – | > 8.00 | 6.00 to 7.00 | CC1(C)C[C@H]2N(c3cccc(N=S(C)(C)=O)n3)c3nc(Nc4ccc(N5C[C@H]6C[C@@H]5CO6)cc4)ncc3[C@@]2(C)CO1 (single isomer, unassigned) [Example 498]
27 | – | – | > 8.00 | 6.00 to 7.00 | CN1CC[C@@H](Oc2ccc(Nc3ncc4c(n3)N(c3cccc(N5CCOC5=O)n3)[C@@H]3CC(C)(C)OC[C@]43C)cc2)C1 [Example 624, 3-(6-((4bR,8aR)-4b,7,7-trimethyl-2-((4-(((R)-1-methylpyrrolidin-3-yl)oxy)phenyl)amino)-4b,7,8,8a-tetrahydropyrano[3′,4′:4,5]pyrrolo[2,3-d]pyrimidin-9(5H)-yl)pyridin-2-yl)oxazolidin-2-one]
28 | – | – | > 8.00 | 6.00 to 7.00 | Cc1cccc(N2c3nc(Nc4ccc(N5CCN(C)CC5)cc4)ncc3[C@@]3(C)COC(C)(C)C[C@@H]23)n1 (single isomer, unassigned) [Example 759]
29 | – | – | > 8.00 | > 7.00 | C[C@@H]1CN(c2ccc(Nc3ncc4c(n3)N(c3cccc(N=S(C)(C)=O)n3)[C@@H]3CC(C)(C)OC[C@]43C)cc2)CCN1C (single isomer, unassigned) [Example 499]
30 | – | – | > 8.00 | > 7.00 | CC1(C)C[C@H]2N(c3cccc(P(C)(C)=O)n3)c3nc(Nc4ccn(C5CCOCC5)c(=O)c4)ncc3[C@@]2(C)CO1 (single isomer, unassigned) [Example 780]
31 | – | – | > 8.00 | > 7.00 | CN1CC[C@H]2CN(c3ccc(Nc4ncc5c(n4)N(c4cccc(N=S(C)(C)=O)n4)[C@@H]4CC(C)(C)OC[C@]54C)cc3)C[C@H]21 (single isomer, unassigned) [Example 503]
32 | – | – | > 8.00 | 6.00 to 7.00 | CC1(C)C[C@H]2N(c3cccc(N4CCOC4=O)n3)c3nc(Nc4ccc(C5CNC5)cc4)ncc3[C@@]2(C)CO1 [Example 666, 3-(6-((4bR,8aR)-2-((4-(azetidin-3-yl)phenyl)amino)-4b,7,7-trimethyl-4b,7,8,8a-tetrahydropyrano[3′,4′:4,5]pyrrolo[2,3-d]pyrimidin-9(5H)-yl)pyridin-2-yl)oxazolidin-2-one]
33 | – | – | > 8.00 | > 7.00 | CN1CC[C@H](Oc2ccc(Nc3ncc4c(n3)N(c3cccc(N5CCOC5=O)n3)[C@@H]3CC(C)(C)OC[C@]43C)cc2)C1 [Example 615, 3-(6-((4bR,8aR)-4b,7,7-trimethyl-2-((4-(((S)-1-methylpyrrolidin-3-yl)oxy)phenyl)amino)-4b,7,8,8a-tetrahydropyrano[3′,4′:4,5]pyrrolo[2,3-d]pyrimidin-9(5H)-yl)pyridin-2-yl)oxazolidin-2-one]
